Experimental data published in patent US9241998B2 (Board of Regents, The University of Texas System, priority 2007, dated 2016).
Peptide text beside a SMILES is read from it. * marks the point of attachment. Cbz = O=C(OCc1ccccc1)*; CH2F = FC*

What was measured:
[1] = tested on: PC-3 cells; assay: Western blot of apoptosis proteins in RSV infected cells; assay type: cell-based, human
Protocol: Bcl-2, Bcl-xL, Bad, Bax antibodies were obtained from Cell Signaling, while caspase-3, PARP and GFP antibodies were from Santa Cruz. Heat shock protein-70 (Hsp70) (Santa Cruz) antibody was used as a loading control. Nuclear extracts prepared from infected cells were incubated with a ^32P-labeled NF-κB oligonucleotide probe and analyzed for EMSA as described previously.

[2] = tested on: RSV infected PC-3 cells; assay: RSV induced apoptosis (TUNEL) with caspase inhibitors or neutralizing antibodies; assay type: cell-based, human; details: for decline in RSV induced apoptosis (TUNEL): PC-3 cells, 36 h post-infection, 15 μM optimal for caspase-3, -9, -8 inhibitors
Protocol: PC-3 cells were pre-treated with control inhibitor (Z-FA-FMK) or caspase-3 (Z-DQMD-FMK), -8 (Z-IETD-FMK), -9 (Z-LEHD-FMK), -3/7 (Z-DEVD-FMK) (Calbiochem) and -12 (Z-ATAD-FMK) (MBL) inhibitors for 1 h at 37° C. Caspase-3, -8, -9 and -3/7 inhibitors at 15 μM-60 μM were used, while the caspase-12 inhibitor was used at 50 μM-100 μM. […] The cells were then washed and the infection was continued for an additional 36 h in the presence of inhibitors, following which apoptosis analysis was performed by TUNEL assay. […] In some experiments, infection was performed in the presence of both neutralizing antibody and caspase-3 or -8 inhibitors. At 36 h post-infection, cells were assayed for apoptosis. PC-3 and RWPE cells were pre-treated with either SN50 peptide (30 μM) or control SN50M (50 μM) peptide (Calbiochem) for 2 h, followed by virus infection (in the presence of peptides) for 0 h-36 h, after which cells were analyzed for apoptosis.

[3] = tested on: A549 cells; assay: Interferon-γ+Fas antibody mediated apoptosis in A549 cells; assay type: cell-based, human
Description: (§1) The extrinsic pathway to apoptosis is induced following engagement of death receptors (e.g., TNF-receptor and Fas) with cognate ligands (TNF and FasL), leading to the activation of caspase-8. The ER-stress pathway (12) activation leads to activation of caspase-12. Activation of both caspase-8 and caspase-12 results in caspase-3 activation and apoptosis. […] Similarly, blocking caspase-9 activity also led to significant inhibition (by 75%) in apoptosis. […] It is important to note that the caspase-8 inhibitor is active, since it reduced interferon-γ+Fas antibody mediated apoptosis (14) in A549 cells by 60%.

[4] = tested on: human lung epithelial A549 cells; assay: RSV mediated apoptosis in A549 cells with caspase inhibitor; assay type: cell-based
Description: as §1

Row | SMILES | PARP cleavage in RSV infected cells treated with inhibitor [1] | decline in RSV induced apoptosis (TUNEL) [2] | reduction of interferon-γ+Fas antibody mediated apoptosis [3] [%] | inhibition of apoptosis in infected PC-3 cells at high concentration ([2]; up to 100 μM) | inhibition of RSV mediated apoptosis [4] [%]
1 | COC(=O)CC[C@H](NC(=O)[C@H](CC(=O)OC)NC(=O)OCc1ccccc1)C(=O)N[C@H](C(=O)N[C@@H](CC(=O)OC)C(=O)CF)C(C)C [Z-DEVD-FMK] | prevented PARP cleavage | – | – | – | –
2 | COC(=O)C[C@H](NC(=O)[C@H](CCSC)NC(=O)[C@H](CCC(N)=O)NC(=O)[C@H](CC(=O)OC)NC(=O)OCc1ccccc1)C(=O)CF [caspase-3 inhibitor, Z-DQMD-FMK] (Cbz-D(OMe)QMD(OMe)-CH2F) | prevented PARP cleavage | 85% | – | – | –
3 | CC[C@H](C)[C@H](NC(=O)OCc1ccccc1)C(=O)N[C@@H](CCC(=O)OC)C(=O)N[C@H](C(=O)N[C@@H](CC(=O)OC)C(=O)CF)[C@@H](C)O [caspase-8 inhibitor, Z-IETD-FMK] (Cbz-IE(OMe)TD(OMe)-CH2F) | – | 15% | 60 | – | –
4 | COC(=O)CC[C@H](NC(=O)[C@H](CC(C)C)NC(=O)OCc1ccccc1)C(=O)N[C@@H](Cc1cnc[nH]1)C(=O)N[C@@H](CC(=O)OC)C(=O)CF [caspase-9 inhibitor, Z-LEHD-FMK] (Cbz-LE(OMe)HD(OMe)-CH2F) | – | 75% | – | – | –
5 | C[C@H](NC(=O)OCc1ccccc1)C(=O)N[C@H](C(=O)N[C@@H](C)C(=O)N[C@@H](CC(=O)O)C(=O)CF)[C@@H](C)O [caspase-12 inhibitor, Z-ATAD-FMK] (Cbz-ATAD-CH2F) | – | did not alter apoptosis | – | failed to inhibit apoptosis | 40
